In brackets after ≈: the same amount, converted by molar mass. Structures can show the parent of a compound that is named as a salt. Where two headings read alike, the source gives them in different places.

For series [1], the system named is C difficile. The note with it: cited from earlier work.
The test system of series [2] is C difficile. The note with it: cited from earlier work. The source holds these as a separate data set.
For series [3] the following is noted: in vivo; cited from earlier work.
For series [4], the system named is Clostridium difficile infections (CDI). The note with it: oral administration; cited from earlier work.
The conditions of series [5]: cited from earlier work.
The nature of series [6]: First-in-Man study: iv. bolus or 20 min infusion of Compound 1. It counts as in vivo, humans. As to conditions: for AUC / Cmax: male, human, plasma, mean. The protocol: Volunteers were administered doses of up to 3.0 mg/kg body weight (BW) of Compound 1 given as iv. bolus injection of 2 min duration. Additionally, doses of 1.5 and 3.0 mg/kg BW of Compound 1 were administered as a short-term infusion of 20 min duration, resulting in infusion rates of 4.5 and 9.0 mg/(kg BW×h), respectively.

A short description of series [7]: Solubility in aqueous media. It counts as physicochemical.
Series [8] relates to anaerobes, in particular Gram-positive anaerobes. The note with it: cited from earlier work.
Series [9] relates to Staphylococcus aureus ATCC 33593. In words: MIC testing according to CLSI guidelines. It counts as cell-based. As to conditions: ATCC33593. The source says: (§1) MIC testing was done according to CLSI (formerly NCCLS) guidelines: Performance Standards for Antimicrobial Susceptibility Testing 11th Informational Supplement, Vol. 21 No 1, M100-S11, January 2001. NCCLS. Revised edition: 17th Informational Supplement, Vol. 27 No 1, […], January 2007.

The subject of series [10] is Staphylococcus aureus ATCC 43300. In words: MIC testing according to CLSI guidelines. It counts as cell-based. As to conditions: ATCC43300.
Excerpt: as §1

Series [11] concerns Staphylococcus aureus ATCC 29213. The series can be described thus: MIC testing according to CLSI guidelines. It counts as cell-based. The note with it: ATCC29213.
Excerpt: as §1

Series [12] has as its system Staphylococcus aureus NRS 120. The series can be described thus: MIC testing according to CLSI guidelines. As to conditions: NRS120. It counts as cell-based.
Excerpt: as §1

The subject of series [13] is Enterococcus faecalis ATCC 51299. In words: MIC testing according to CLSI guidelines. As to conditions: ATCC51299. It counts as cell-based.
Excerpt: as §1

Series [14] has as its system Enterococcus faecalis ATCC 29212. In words: MIC testing according to CLSI guidelines. It counts as cell-based. The note with it: ATCC29212.
Excerpt: as §1

For series [15], the system named is Streptococcus pneumoniae ATCC 33400. The series can be described thus: MIC testing according to CLSI guidelines. The note with it: ATCC33400. It counts as cell-based.
Excerpt: as §1

Series [16] relates to Staphylococcus aureus Visa Mu 50. In words: MIC testing according to CLSI guidelines. It counts as cell-based.
Excerpt: as §1

The next series has as its system Gram-negative species. In words: Fecal microflora after i.v. infusions in healthy volunteers. As to conditions: Compound 1 i.v. 6 mg/kg over 12 hours for 5 days. It counts as in vivo, human. The protocol: (§2) Healthy human volunteers received i.v. infusions of Compound 1 at a dose of 6 mg/kg body weight over 12 hours for 5 consecutive days. […] Viable counts of lactobacilli were reduced from predose to Day 5 by 4.0 log 10 CFU/g. […] Likewise, enterococci were reduced from predose to Day 5 by 3.8 log 10 CFU/g on average.

Another series relates to enterococci. The series can be described thus: Fecal microflora viable counts after i.v. infusions in healthy volunteers. It counts as in vivo, human. The note with it: Compound 1 i.v. 6 mg/kg over 12 hours for 5 days. Here is the method:
as §2

In another series the test system is lactobacilli. Described as above. It counts as in vivo, human. As to conditions: Compound 1 i.v. 6 mg/kg over 12 hours for 5 days. The protocol: as §2
For a further series, the system named is bifidobacteria. The series is described as above. It counts as in vivo, human. As to conditions: Compound 1 i.v. 6 mg/kg over 12 hours for 5 days. Here is the method: as §2
A further series relates to Clostridium spp. Described as above. It counts as in vivo, human. The protocol: as §2
For a further series, the system named is Clostridium difficile. The series can be described thus: Antimicrobial susceptibility of 114 C. difficile strains by agar dilution method. The note with it: for MIC50: Clostridioides difficile, read-out: MIC50. It counts as cell-based. The protocol:
One hundred fourteen Clostridium difficile strains were collected from 67 patients and analyzed for the presence of C. difficile toxin B by the cell cytotoxicity neutralization assay, genes for toxin A, toxin B, binary toxin and TcdC deletion by PCR. All strains were also PCR-ribotyped. The MICs of the isolates were determined against Compound 2 by the agar dilution method. All isolates were positive for toxin B. One hundred thirteen isolates were positive for toxin A and B genes. In addition, 13 isolates were positive for the binary toxin genes. Thirty-two different ribotypes were identified. No strain of ribotype 027 was found.
One hundred fourteen C. difficile strains were selected from patients (26 males and 41 females) with primary and/or recurrent CDI. The mean age of the patients was 74 years (age range 19-97 years). The strains (67 primary and 47 recurrent isolates) were identified by characteristic colony morphology, typical smell and Gram staining. Gas chromatography was used to detect volatile, short chain fatty acids production by the C. difficile strains for the final identification.
The antimicrobial susceptibility of the C. difficile strains was determined according to CLSI guidelines by the agar dilution method using Bacteroides fragilis ATCC 25285 and C. difficile ATCC 700057 as reference strains [CLSI. Methods for Antimicrobial Susceptibility Testing of Anaerobic Bacteria; Approved Standard-Eighth Edition. 2012].
MIC was defined as the lowest concentration of the drug that inhibited growth completely. MIC50/90 corresponds to the concentrations that inhibit the growth of 50% and 90%, of the strains tested, respectively.
PCR ribotype profiles from clinical isolates were compared to those profiles which define the database by maximum matching with Pearson correlation. IBM SPSS Statistics 22 (Armonk, N.Y., USA) software was used to calculate the percentiles 50 and 90 of the MIC results. Descriptive statistics were used to summarize the results.

The mark [17] stands for this setting: intravenous, Drug after 3.0 mg/kg BW Compound 1, 20 min infusion, 9.0 mg/(kg BW·h).
[18] abbreviates: Drug after 3.0 mg/kg BW Compound 1 iv. bolus.
[19] abbreviates: 114 C. difficile strains, agar dilution.

On to `CC(=O)NC[C@H]1CN(c2ccc(N3CCOCC3)c(F)c2)C(=O)O1` [linezolid], for which, in the series on C difficile [1], the “Activity in an in vitro human gut model” value was “inactive”. Besides, in the series on C difficile [2], the “Activity in vitro against C difficile” value is reported as “active”. In [3], the Fecal concentrations result is on record as “negligibly low” and the “Fraction of the dose excreted via the feces” value is on record as 0.2 % of the dose.
With `CCc1c(Cl)c(O)c(Cl)c(O)c1C(=O)O[C@H]1[C@H](O)[C@H](OC)[C@H](OC/C2=C\C=C\C[C@H](O)/C(C)=C/[C@H](CC)[C@@H](O[C@@H]3OC(C)(C)[C@@H](OC(=O)C(C)C)[C@H](O)[C@@H]3O)/C(C)=C/C(C)=C/C[C@@H]([C@@H](C)O)OC2=O)O[C@@H]1C` [fidaxomicin], in series [4], the “Frequency of recurrence of CDI” value is given as “approximately 13%”.
Take `CN[C@H](CC(C)C)C(=O)N[C@H]1C(=O)N[C@@H](CC(N)=O)C(=O)N[C@H]2C(=O)N[C@H]3C(=O)N[C@H](C(=O)N[C@H](C(=O)O)c4cc(O)cc(O)c4-c4cc3ccc4O)[C@H](O)c3ccc(c(Cl)c3)Oc3cc2cc(c3O[C@@H]2O[C@H](CO)[C@@H](O)[C@H](O)[C@H]2O[C@H]2C[C@](C)(N)[C@H](O)[C@H](C)O2)Oc2ccc(cc2Cl)[C@H]1O` [vancomycin]: in series [5], the “Toxicity associated with long term treatment” value is listed as “nephrotoxicity”.
`CC(=O)NC[C@H]1CN(c2ccc(OCC3(OP(=O)(O)O)CCN(c4cc5c(cc4F)c(=O)c(C(=O)O)cn5C4CC4)CC3)c(F)c2)C(=O)O1` [Compound 1, sodium salt of 7-(4-{4-[(5S)-5-(Acetylamino-methyl)-2-oxo-oxazolidin-3-yl]-2-fluoro-phenoxymethyl}-4-phosphonooxy-piperidin-1-yl)-1-cyclopropyl-6-fluoro-4-oxo-1,4-dihydro-quinoline-3-carboxylic acid]: the “AUC of the Prodrug, 20 min infusion compared to bolus administration” value in series [6] (3.0 mg/kg BW) is “lower AUC”. Further, the “Conversion of the Prodrug to the Drug” value in [6] (humans, all doses applied) was “very rapid conversion”. Further, in series [7], the “Solubility in aqueous media” value is reported as “very good solubility”.
For the compound `O=C(O)c1cn(C2CC2)c2cc(N3CCNCC3)c(F)cc2c1=O` [Ciprofloxacin], in [8], the “Activity in vitro against anaerobes” value is on record as “neither active in vitro”. Besides, the Fecal concentrations entry in series [3] is on record as “high”.
Turning to `Cc1ncc([N+](=O)[O-])n1CCO` [metronidazole], the “Toxicity associated with long term treatment” value in [5] is on record as “neurotoxicity”.
Regarding `CC(=O)NC[C@H]1CN(c2ccc(OCC3(O)CCN(c4cc5c(cc4F)c(=O)c(C(=O)O)cn5C4CC4)CC3)c(F)c2)C(=O)O1` [Compound 2, 7-(4-{4-[(5S)-5-(Acetylamino-methyl)-2-oxo-oxazolidin-3-yl]-2-fluoro-phenoxymethyl}-4-hydroxy-piperidin-1-yl)-1-cyclopropyl-6-fluoro-4-oxo-1,4-dihydro-quinoline-3-carboxylic acid], the AUC worked out at 3230 ng·h/mL in series [6] (setting [17]) and 2170 ng·h/mL in [6] (setting [18]). Further, the Cmax stood at 3180 ng/mL in [6] (setting [17]) and 2450 ng/mL in series [6] (setting [18]). Moreover, the MIC in series [9] came to 0.25 µg/mL (≈ 0.399 µM); in series [10], 0.5 µg/mL (≈ 0.798 µM); in [11], 0.5 µg/mL (≈ 0.798 µM); in series [12], 2 µg/mL (≈ 3.19 µM); in [13], 0.25 µg/mL (≈ 0.399 µM); in series [14] it was 0.25 µg/mL (≈ 0.399 µM). Besides, the MIC in series [15] came out at 0.03 µg/mL (≈ 0.0479 µM); in series [16] it was 0.5 µg/mL (≈ 0.798 µM). The “Effect of exposure of the fecal flora on Gram-negative species” value with Gram-negative species is given as “did not affect”. Moreover, the “Reduction of enterococci from predose to Day 5, on average” value in the series with enterococci turned out to be 3.8 log 10 CFU/g. The “Reduction of viable counts of lactobacilli from predose to Day 5” value in the series on lactobacilli was determined as 4.0 log 10 CFU/g. In the series with bifidobacteria, the “Reduction of viable counts of bifidobacteria from predose to Day 5” value is recorded as 7.9 log 10 CFU/g. Also, the “Reduction of viable counts of Clostridium spp. from predose to Day 5” value in the series on Clostridium spp. (Compound 1 i.v. 6 mg/kg over 12 hours for 5 days) amounted to 3.0 log 10 CFU/g. In the series on Clostridium spp. (all except one of the volunteers), the “Viable counts of Clostridium spp. until Day 3 postdose” value is recorded as “reduced below the limit of detection”. Moreover, the MIC range was 0.008-0.5 mg/1 in the series with Clostridium difficile (114 C. difficile isolates, agar dilution) and 0.008 to 0.5 mg/L against Clostridium difficile (setting [19]). In the series with Clostridium difficile (setting [19]), this compound came in with an MIC90 of 0.064 mg/1. Moreover, the figures for the MIC50 in the series on Clostridium difficile and with Clostridium difficile (setting [19]) were 0.064 µg/mL (≈ 0.102 µM) and 0.032 µg/mL (≈ 0.0511 µM), respectively. Besides, the “Susceptibility of the C. difficile isolates” value in the series with Clostridium difficile (all 114 isolates) was “sensitive”.

These data come from patent US10723746B2, “Oxazolidinone-quinolone hybrid antibacterials for the parenteral treatment or prophylaxis of bacterial diseases” (MORPHOCHEM AKTIENGESELLSCHAFT FÜR KOMBINATORISCHE CHEMIE, priority 2013, dated 2020).
